From US7250442B2, “Dihydroindol-2-one derivatives as steroid hormone nuclear receptor modulators” (Eli Lilly and Company, priority 2003, dated 2007)

Legend:
human MR = molecular target: T1, human MR (Homo sapiens, UniProt P08235); experiment: Mineralocorticoid Receptor Binding Assay ([3H]-aldosterone displacement); conditions: full length human MR expressed in Sf9 cells, 0.5 nM [3H]-aldosterone
T1 construct: The full length human MR gene is cloned from a human kidney or human brain cDNA library; made in house; host or cells: Sf9 insect cells (baculovirus, pAcHLT transfer vector)
T1 sequence (P08235 1-984): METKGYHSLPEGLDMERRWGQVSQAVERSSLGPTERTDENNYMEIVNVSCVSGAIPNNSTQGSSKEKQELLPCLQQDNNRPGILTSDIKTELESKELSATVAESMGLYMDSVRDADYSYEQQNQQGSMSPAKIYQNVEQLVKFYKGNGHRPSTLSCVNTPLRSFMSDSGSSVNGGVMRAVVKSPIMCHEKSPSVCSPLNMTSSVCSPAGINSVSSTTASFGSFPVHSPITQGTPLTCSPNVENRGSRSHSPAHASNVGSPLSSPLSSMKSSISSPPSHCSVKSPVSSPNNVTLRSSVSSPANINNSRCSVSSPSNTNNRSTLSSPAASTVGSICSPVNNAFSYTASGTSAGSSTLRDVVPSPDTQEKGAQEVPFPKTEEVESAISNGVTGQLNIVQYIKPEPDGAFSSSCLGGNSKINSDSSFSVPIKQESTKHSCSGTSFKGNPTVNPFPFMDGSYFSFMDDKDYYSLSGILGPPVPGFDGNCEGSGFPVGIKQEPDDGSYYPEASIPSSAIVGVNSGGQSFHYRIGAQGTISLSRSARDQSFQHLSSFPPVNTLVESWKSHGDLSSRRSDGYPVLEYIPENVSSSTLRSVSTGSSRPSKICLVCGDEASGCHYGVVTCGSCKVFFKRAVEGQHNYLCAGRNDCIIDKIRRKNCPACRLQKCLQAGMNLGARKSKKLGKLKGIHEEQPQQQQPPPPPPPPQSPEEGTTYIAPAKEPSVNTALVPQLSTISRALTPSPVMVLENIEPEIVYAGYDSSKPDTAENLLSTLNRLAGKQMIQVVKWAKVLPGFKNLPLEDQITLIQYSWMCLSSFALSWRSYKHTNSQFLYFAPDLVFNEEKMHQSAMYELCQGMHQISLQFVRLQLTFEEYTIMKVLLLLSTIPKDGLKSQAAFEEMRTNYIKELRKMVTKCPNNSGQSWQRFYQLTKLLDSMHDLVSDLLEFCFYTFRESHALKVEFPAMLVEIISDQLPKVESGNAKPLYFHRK
Description: Mineralocorticoid Receptor Binding Assay:
The full length human MR gene is cloned from a human kidney or human brain cDNA library. Briefly, using synthetic oligonucleotide primers (Eli Lilly and Company, Indianapolis) directed to nucleotides 20-54 and 3700-3666 of the human MR, polymerase chain reaction (PCR) is performed under standard conditions using a human cDNA library. The PCR reaction is performed in a final volume of 50 μl containing about 1 μl of a 50× stock solution of polymerase; about 1 μl of a 50× stock solution of dNTP; about 5 μl of an appropriate PCR buffer; about 1 μl of each primer; about 5 μl of a H. kidney or H. brain cDNA library; and about 36 μl of water. The reaction is allowed to denature for about 30 seconds at 95 degrees Celsius, anneal for about 30 seconds at 55 degrees Celsius, and extend for about 5 minutes at 72 degrees Celsius, the sequence being repeated for a total of about 35 cycles. The desired PCR product (3.68 Kb) is confirmed by gel electrophoresis and subsequently cut from the gel and stored at about −20 degrees Celsius until extraction. To extract the cDNA product from the agarose gel, the QIAEX II Gel Extraction protocol (QIAGEN, Inc.) is employed according to the manufacturer's instructions. Following extraction, the MR cDNA is cloned into an appropriate cloning vector (Zero Blunt TOPO PCR Cloning Kit (Invitrogen, Inc.) and a pAcHLT-baculovirus transfer vector (B.D./Pharminogen), then expressed in SF9 insect cells, essentially according to manufacturer's instructions. Sf9 cells are grown at a scale where gram quantity cell pellets are obtained for subsequent use in the MR binding assay. Harvested cell pellets are lysed by repeated freeze-thaw cycles (about 4) in a suitable lysis buffer then centrifuged at about 1×10^3 G (with the supernatant being saved for future assays).
MR binding assays are performed in a final total volume of about 250 μl containing about 20-25 μg of protein and 0.5 nM of [^3H]-aldosterone plus varying concentrations of test compound or vehicle. The assay binding buffer consists of 30 mM sodium molybdate, 30 mM of TRIS-HCl, 5 mM sodium phosphate, 5 mM sodium pyrophosphate, and about 10% glycerol, pH=7.5.
Briefly, assays are prepared at RT in 96-well Falcon 3072 plates, each well containing 210 μl of binding buffer, 10 μl of [^3H]-aldosterone, 10 μl of test compound/vehicle, and 20 μl of the resuspended receptor protein extract. Incubations are carried out at 4 degrees Celsius with shaking for about 16 hours. 200 μl aliquots of each incubation are filtered onto Millipore HA 0.45 micron 96-well filter plates, pre-moistened with cold 30 mM TRIS-HCl. The filter plates are suctioned dry with vacuum and immediately washed 3× with cold 30 mM TRIS-HCl. The plates are then punched out and the amount of receptor-ligand complex is determined by liquid scintillation counting using 4 ml of Ready Protein Plus™ liquid scintillation cocktail.
IC50 values (defined as the concentration of test compound required to decrease [^3H]-aldosterone binding by 50%) are then determined. Ki values for each respective test compound can then be calculated by application of the Cheng-Prusoff equation as described in Cheng et al., Relationship Between The Inhibition Constant (Ki) and The Concentration of Inhibitor Which Causes 50% Inhibition (IC50) of an Enzymatic Reaction, Biochem. Pharmacol., 22: 3099-31088; (1973).

[1] = in combination with standard CHF therapy, patients suffering from advanced CHF; cited from earlier work

| SMILES | Ki (human MR) [nM] | reduced cardiac related mortality [1] [%] | reduced frequency of hospitalization [1] [%] |
| --- | --- | --- | --- |
| Cc1cc(C2(c3cc(C)c(O)c(C)c3)C(=O)N(Cc3ccc4ccccc4c3)c3ccccc32)cc(C)c1O [Example 59, 3,3-Bis-(4-hydroxy-3,5-dimethyl-phenyl)-1-naphthalen-2-ylmethyl-1,3-dihydro-indol-2-one] | ≤ 500 | – | – |
| Cc1cc(C2(c3cc(C)c(O)c(C)c3)C(=O)N(CC(=O)NC3CCCCC3)c3ccccc32)cc(C)c1O [Example 96, 2-[3,3-Bis-(4-hydroxy-3,5-dimethyl-phenyl)-2-oxo-2,3-dihydro-indol-1-yl]-N-cyclohexyl-acetamide] | ≤ 500 | – | – |
| Cc1cc(C2(c3cc(C)c(O)c(C)c3)C(=O)N(Cc3cccnc3)c3ccccc32)cc(C)c1O [Example 103, 3,3-Bis-(4-hydroxy-3,5-dimethyl-phenyl)-1-pyridin-3-ylmethyl-1,3-dihydro-indol-2-one] | ≤ 500 | – | – |
| C=CCN1C(=O)C(c2cc(C)c(O)c(C)c2)(c2cc(C)c(O)c(C)c2)c2ccccc21 [Example 104, 1-Allyl-3,3-bis-(4-hydroxy-3,5-dimethyl-phenyl)-1,3-dihydro-indol-2-one] | ≤ 500 | – | – |
| CC(=O)S[C@@H]1CC2=CC(=O)CC[C@]2(C)[C@H]2CC[C@@]3(C)[C@@H](CC[C@@]34CCC(=O)O4)[C@H]12 [spironolactone] | – | 30 | 35 |

Second part, led by results:

| Ki (human MR) [nM] | SMILES | reduced cardiac related mortality [1] [%] | reduced frequency of hospitalization [1] [%] |
| --- | --- | --- | --- |
| ≤ 500 | Cc1cc(C2(c3cc(C)c(O)c(C)c3)C(=O)N(Cc3ccc(C(=O)c4ccccc4)cc3)c3ccccc32)cc(C)c1O [Example 71, 1-(4-Benzoyl-benzyl)-3,3-bis-(4-hydroxy-3,5-dimethyl-phenyl)-1,3-dihydro-indol-2-one] | – | – |
| ≤ 500 | Cc1cc(C2(c3cc(C)c(O)c(C)c3)C(=O)N(CCc3ccccn3)c3ccccc32)cc(C)c1O [Example 122, 3,3-Bis-(4-hydroxy-3,5-dimethyl-phenyl)-1-(2-pyridin-2-yl-ethyl)-1,3-dihydro-indol-2-one] | – | – |
